Reference: US12213479B2, “Monoterpenoid/phenylpropanoid-containing compounds and methods of their making and use as herbicides” (KITTRICH CORPORATION, priority 2016, dated 2025)
“Also recorded” adds a separate entry of the source.

Tests used:
[1] = tested on: Wood sorrel; assay: Foliar spray, wood sorrel; format: in vivo; details: 20 sprays of 1%; observed 2 days after exposure and later
Description: Wood sorrel on the ground of the greenhouse was also treated with active ingredient in order to better assess the effects of foliar treatments on multiple plant species. A patch of wood sorrel was (approximately 4′×3′) was treated with 20 sprays (mist setting) from a MAINStays ironing spray bottle. Effects of the spray were recorded 2 days after exposure.

[2] = tested on: Giant Foxtail (Setaria faberi); assay: Weed soil drench assay, giant foxtail; format: in vivo; details: for Percentage mortality: Giant Foxtail, 40 mL of 5% solution, soil drench; for chlorosis and phytotoxicity: giant foxtail, 40 mL of 5%, 2 days after application
Description: (§1) Giant foxtail seeds were obtained from the Department of Agronomy at Iowa State University. Three seeds were sown for each pot (6″ wide×4.5″ deep) with approximately 800 mL of soil for each plant. Only plants that germinated were used for the study. Plants were treated 1-2 weeks post emergence. Plants were watered every 2-3 days as needed.
(§2) Formulations of the various active ingredients were created using the monoterpenoid derivatives, potassium hydroxide, and Triton-X 100™ to aid in the solvation of the active ingredient. Formulations included 5% active ingredient by weight (0.5-1 g/100 ml water), with a 1:1 molar ratio of potassium hydroxide used to aid in the solvation (135-269 mg/100 mL for both thymyloxyacetic acid and carvacryloxyacetic acid). […] Observations were performed 2 days and 3 weeks after soil drench to determine the effects of the treatments on the various types and stages of plants. Phytotoxicity is reported as percentage of total plants treated compared to a control treatment that was exposed to a similar formulation (without the active monoterpenoid derivatives).

[3] = tested on: treated weeds from each species; assay: Weed soil drench assay, all treated weed species; format: in vivo; details: 5% soil drench; observed at two days after the initial treatment
Description: as §2

[4] = tested on: soybeans; assay: Germination assay, soybeans coated with compound; format: in vivo, soybean; details: beans coated in 1% weight compound/weight bean
Text: Soybeans were susceptible to Aphis glycines infestation and were not determined to be a biotype that was resistant to infestation, which could confide results. Germination typically occurred between 3-5 days after moistening.

[5] = tested on: Wood sorrel; assay: Pre-emergence assay, wood sorrel; format: in vivo; details: for pre-emergent effect on wood sorrel (words): 1%, 3-weeks after application; for qualitative growth assessment, pre-emergence: Sorrel, soil treated with 40 ml of 1% solution 1 day after planting, 3 weeks after application
Description: (§3) 1-day after seeds/beans were planted, soil was drenched with 40 ml of formulation with 1% active ingredient. This was done to assess germination inhibition in the soil. […] Qualitative growth assessment was made by comparing the treated plants to the untreated controls.

[6] = tested on: Corn; assay: Pre-emergence assay, corn; format: in vivo; details: for pre-emergent effect on corn (words): 1%, 3-weeks after application; for qualitative growth assessment, pre-emergence: Corn, soil treated with 40 ml of 1% solution 1 day after planting, 3 weeks after application
Description: Corn plants were planted under ½″ of potting soil and watered every 2-3 days as necessary. Plants were grown in potting plants (6″ wide×4.5″ deep) with approximately 800 mL of soil for each plant. Plants germinated approximately 4-7 days after being planted. Plants were grown in a greenhouse under a constant temperature and light environment (25±5° C., 12 hr: 12 hr light: dark cycle).
as §3

[7] = tested on: Lamb's Quarters (Chenopodium album); assay: Weed soil drench assay, lamb's quarters; format: in vivo; details: for Percentage mortality: Lamb's quarters, 40 mL of 5% solution, soil drench; for chlorosis and phytotoxicity: lamb's quarters, 40 ml of 5%, two days after application
Description: as §1, with “Lamb's quarters” for “Giant foxtail”, “Individual” for “Three”
as §2

[8] = tested on: Cocklebur (Xanthium spp.); assay: Toxicity assay (probit LC50), cocklebur; format: in vivo
Text: (§4) Cocklebur burs were obtained from the Department of Agronomy at Iowa State University. Individual seeds were sown for each pot (1.5″ wide×3″ deep) with approximately 7.5 g of soil for each plot. One bur/plot was sown into numerous plots. After one month of germination, germinated plants were counted in each plot and this number was used for the total number of plants challenged per plot in the toxicity assessment.
(§5) The total number of plants were counted in each plot in 24×6 hexagonal small plot planter tray. The number of germinated seeds in each plot was enumerated after one month, and for each plot this number was recorded and used as the total for each plot. Differing concentrations of thymyloxyacetic acid was applied in 5% Triton-X 100 and 1:1 molar ratio potassium hydroxide:thymyloxyacetic acid to aid in the solubility of the compound in water. Ten mL of solution was applied to each plot, and the mortality of the plants was assessed at 3 days and 2 weeks post application (for some treatments). Mortality at these time points were enumerated out of the total plants germinated in each plot at the beginning of the assay. At both time points, the total number of dead plants and total number of plants at the beginning of the assay were recorded for each observation. A Probit model was used to calculate the LC50 values for each of the compounds explored in this assay. A formulation control (with no active ingredient) was screened against a number of plants and factored into the final probit model. This formulation control had little-to-no effect by itself.

[9] = tested on: Palmer Amaranth (Amaranthus palmeri); assay: Toxicity assay (probit LC50), Palmer amaranth; format: in vivo
Text: as §4, with “Palmer amaranth seeds” for “Cocklebur burs”, “Five seeds/plot were” for “One bur/plot was”, “assessment” for “assessment.”
as §5

[10] = tested on: Soybean plants; assay: Foliar spray assay, soybean plants; format: in vivo; details: 1% foliar spray; for phytotoxic effects on soybean plants (words), foliar spray: 1-month old soybean plants, up to 14 days after exposure; for chlorosis / leaf death: soybean plants
Description: Soybean plants were planted under 1 cm of potting soil and watered every 2-3 days as necessary. Plants were grown in pots (6″ wide×4.5″ deep) with approximately 800 mL of soil for each plant. Plants germinated approximately 3-5 days after being planted. Plants were grown in a greenhouse under a constant temperature and light environment (25±5° C., 12 hr:12 hr light:dark cycle). Plants were grown until reaching 4 weeks old and were then used for the foliar spray experiment.
Formulations were made to include 1% thymyloxyacetic acid, 0.269% potassium hydroxide, and 0.25% Triton-X 100™. Soybean plants were sprayed with 10 mists from a MAINStays™ Ironing Spray bottle set to the mist setting. This corresponded to the minimum amount necessary to cause dripping from the leaves of the plants. […] Plants were placed under high intensity light (directly below greenhouse lamps) and low intensity light (not under lamp/ambient light environment). Light intensity was chosen as a factor for this experimental design. […] This effect is greatly diminished under low intensity light conditions. If thymyloxyacetic acid is causing phytotoxicity in the same mechanism of action as other plant terpenoids, there should be a drastic difference in the phytotoxicity among these different levels of light intensity.

[11] = listed as Carvacryloxyacetic acid

Cc1ccc(C(C)C)cc1OCC(=O)O [carvacryloxyacetic acid, 2-(5-isopropyl-2-methylphenoxy)acetic acid]
phytotoxic effect on wood sorrel, foliar spray [1]: Death followed quickly after 2 days post-exposure; also recorded: immediate and widespread chlorosis followed by relatively quick plant death
Percentage mortality ([2]; 2-days after treatment): 100%
Percentage mortality ([2]; 3-weeks after treatment): 100%
chlorosis and phytotoxicity [2]: significant chlorosis and phytotoxicity
treated weeds killed, each species [3]: 100%
inhibition of soybean germination/growth (words) [4]: prevented the growth of soybeans
pre-emergent effect on wood sorrel (words) [5]: completely prevented from growing
pre-emergent effect on wood sorrel (words) [5, 11]: significantly inhibited the growth
qualitative growth assessment, pre-emergence [5]: − −
pre-emergent effect on corn (words) [6]: significant inhibition in corn growth
pre-emergent effect on corn (words) [6, 11]: significantly inhibited the growth
qualitative growth assessment, pre-emergence [6]: − −
Percentage mortality ([7]; 2-days after treatment): 100%
Percentage mortality ([7]; 3-weeks after treatment): 100%
chlorosis and phytotoxicity [7]: significant chlorosis and phytotoxicity

Cc1ccc(C(C)C)c(OCC(=O)O)c1 [thymyloxyacetic acid, 2-(2-isopropyl-5-methylphenoxy)acetic acid]
LC50 Value ([8]; Cocklebur): 1530 ppm
Selective Toxicity Compared to Bluegrass ([8]; Cocklebur compared to bluegrass): 2.29
Percentage mortality ([2]; 2-days after treatment): 100%
Percentage mortality ([2]; 3-weeks after treatment): 100%
chlorosis and phytotoxicity [2]: significant chlorosis and phytotoxicity
treated weeds killed, each species [3]: 100%
LC50 Value ([9]; Palmer Amaranth (Table 6)): 1700 ppm
Selective Toxicity Compared to Bluegrass ([9]; Palmer Amaranth compared to bluegrass): 2.06
LC50 Value ([9]; Palmer Amaranth, 2-week post application, probit): 1350 ppm
LC50 Value ([9]; Palmer Amaranth, 3-day post application, probit): 1700 ppm
inhibition of soybean germination/growth (words) [4]: prevented the growth of soybeans
pre-emergent effect on wood sorrel (words) [5]: significantly inhibited
pre-emergent effect on wood sorrel (words) ([5]; listed as Thymyloxyacetic acid): major inhibition of growth
qualitative growth assessment, pre-emergence [5]: −
pre-emergent effect on corn (words) [6]: significantly inhibited; also recorded: capable of inhibiting the growth
qualitative growth assessment, pre-emergence [6]: −
Percentage mortality ([7]; 2-days after treatment): 100%
Percentage mortality ([7]; 3-weeks after treatment): 100%
chlorosis and phytotoxicity [7]: significant chlorosis and phytotoxicity
phytotoxic effects on soybean plants (words), foliar spray [10]: significant chlorosis and wilting
phytotoxic effects on soybean plants (words), foliar spray ([10]; listed as Thymyloxyacetic acid): significant phytotoxic effects
chlorosis ([10]; High intensity light): ✓
leaf death ([10]; High intensity light): ✓
chlorosis ([10]; Low intensity light): ✓
leaf death ([10]; Low intensity light): ✓
